The NIST ThermoML archive (doi:10.1021/je400056z)

Assay: xn = mol fraction of the nth substance listed
Conditions: Liquid, Vibrating tube method

CCCCCCC [heptane] + O=C=O
Conditions | mass density [kg/m3]
352.3 K, 20004 kPa, x2 = 0.7514 | 694.21
352.3 K, 21007 kPa, x2 = 0.7514 | 699.11
352.3 K, 22009 kPa, x2 = 0.7514 | 703.64
352.3 K, 22989 kPa, x2 = 0.7514 | 707.97
352.3 K, 24025 kPa, x2 = 0.7514 | 712.39
352.3 K, 24893 kPa, x2 = 0.7514 | 715.94
352.44 K, 4005 kPa, x2 = 0.0218 | 638.36
352.44 K, 5013 kPa, x2 = 0.0218 | 639.84
352.44 K, 6005 kPa, x2 = 0.0218 | 641.24
352.44 K, 7000 kPa, x2 = 0.0218 | 642.57
352.44 K, 8008 kPa, x2 = 0.0218 | 643.95
352.44 K, 9006 kPa, x2 = 0.0218 | 645.27
352.44 K, 10002 kPa, x2 = 0.0218 | 646.56
352.44 K, 11002 kPa, x2 = 0.0218 | 647.79
352.44 K, 12000 kPa, x2 = 0.0218 | 649.14
352.44 K, 13002 kPa, x2 = 0.0218 | 650.25
352.44 K, 13998 kPa, x2 = 0.0218 | 651.46
352.44 K, 15011 kPa, x2 = 0.0218 | 652.7
352.44 K, 16006 kPa, x2 = 0.0218 | 653.84
352.44 K, 17009 kPa, x2 = 0.0218 | 654.98
352.44 K, 17993 kPa, x2 = 0.0218 | 656.08
352.44 K, 18998 kPa, x2 = 0.0218 | 657.17
352.44 K, 20004 kPa, x2 = 0.0218 | 658.27
352.44 K, 21002 kPa, x2 = 0.0218 | 659.34
352.44 K, 22002 kPa, x2 = 0.0218 | 660.39
352.44 K, 23003 kPa, x2 = 0.0218 | 661.43
352.44 K, 23998 kPa, x2 = 0.0218 | 662.47
352.44 K, 25014 kPa, x2 = 0.0218 | 663.51
352.51 K, 9000 kPa, x2 = 0.5085 | 656.72
352.51 K, 10004 kPa, x2 = 0.5085 | 660.28
352.51 K, 11004 kPa, x2 = 0.5085 | 663.66
352.51 K, 12007 kPa, x2 = 0.5085 | 666.9
352.51 K, 13000 kPa, x2 = 0.5085 | 670.03
352.51 K, 14003 kPa, x2 = 0.5085 | 673
352.51 K, 15002 kPa, x2 = 0.5085 | 675.9
352.51 K, 15998 kPa, x2 = 0.5085 | 678.62
352.51 K, 17010 kPa, x2 = 0.5085 | 681.33
352.51 K, 18003 kPa, x2 = 0.5085 | 683.88
352.51 K, 19006 kPa, x2 = 0.5085 | 686.38
352.51 K, 20013 kPa, x2 = 0.5085 | 688.8
352.51 K, 21004 kPa, x2 = 0.5085 | 691.17
352.51 K, 22004 kPa, x2 = 0.5085 | 693.46
352.51 K, 23002 kPa, x2 = 0.5085 | 695.71
352.51 K, 24007 kPa, x2 = 0.5085 | 697.91
352.51 K, 25011 kPa, x2 = 0.5085 | 700.05
352.54 K, 15235 kPa, x2 = 0.9496 | 511.88
352.54 K, 15989 kPa, x2 = 0.9496 | 538.42
352.54 K, 17004 kPa, x2 = 0.9496 | 568.84
352.54 K, 18001 kPa, x2 = 0.9496 | 594.2
352.54 K, 18993 kPa, x2 = 0.9496 | 616.18
352.54 K, 20006 kPa, x2 = 0.9496 | 635.42
352.54 K, 20999 kPa, x2 = 0.9496 | 652.26
352.54 K, 22018 kPa, x2 = 0.9496 | 667.75
352.54 K, 22994 kPa, x2 = 0.9496 | 681.03
352.54 K, 24034 kPa, x2 = 0.9496 | 693.84
362.09 K, 12975 kPa, x2 = 0.7514 | 586.38
362.09 K, 14000 kPa, x2 = 0.7514 | 602.3
362.09 K, 14863 kPa, x2 = 0.7514 | 613.15
362.09 K, 16010 kPa, x2 = 0.7514 | 625.83
362.09 K, 17009 kPa, x2 = 0.7514 | 635.46
362.09 K, 18017 kPa, x2 = 0.7514 | 644.3
362.09 K, 19007 kPa, x2 = 0.7514 | 652.35
362.09 K, 20005 kPa, x2 = 0.7514 | 659.83
362.09 K, 21006 kPa, x2 = 0.7514 | 666.86
362.09 K, 22003 kPa, x2 = 0.7514 | 672.93
362.09 K, 22995 kPa, x2 = 0.7514 | 679.37
362.09 K, 24000 kPa, x2 = 0.7514 | 685.55
362.09 K, 24866 kPa, x2 = 0.7514 | 690.92
362.19 K, 7007 kPa, x2 = 0.3148 | 638.82
362.19 K, 8020 kPa, x2 = 0.3148 | 641.6
362.19 K, 9013 kPa, x2 = 0.3148 | 644.14
362.19 K, 10009 kPa, x2 = 0.3148 | 646.61
362.19 K, 11005 kPa, x2 = 0.3148 | 648.99
362.19 K, 12009 kPa, x2 = 0.3148 | 651.27
362.19 K, 12998 kPa, x2 = 0.3148 | 653.42
362.19 K, 13999 kPa, x2 = 0.3148 | 655.52
362.19 K, 15011 kPa, x2 = 0.3148 | 657.61
362.19 K, 16007 kPa, x2 = 0.3148 | 659.59
362.19 K, 17005 kPa, x2 = 0.3148 | 661.48
362.19 K, 18002 kPa, x2 = 0.3148 | 663.3
362.19 K, 18999 kPa, x2 = 0.3148 | 665.1
362.19 K, 20006 kPa, x2 = 0.3148 | 666.9
362.19 K, 21004 kPa, x2 = 0.3148 | 668.62
362.19 K, 22001 kPa, x2 = 0.3148 | 670.29
362.19 K, 23006 kPa, x2 = 0.3148 | 671.94
362.19 K, 24001 kPa, x2 = 0.3148 | 673.55
362.19 K, 25007 kPa, x2 = 0.3148 | 675.13
362.25 K, 17354 kPa, x2 = 0.9496 | 518.07
362.25 K, 17995 kPa, x2 = 0.9496 | 536.06
362.25 K, 19006 kPa, x2 = 0.9496 | 561.22
362.25 K, 20005 kPa, x2 = 0.9496 | 583.24
362.25 K, 21002 kPa, x2 = 0.9496 | 602.87
362.25 K, 21997 kPa, x2 = 0.9496 | 620.08
362.25 K, 22998 kPa, x2 = 0.9496 | 635.9
362.25 K, 24005 kPa, x2 = 0.9496 | 650.25
362.25 K, 24186 kPa, x2 = 0.9496 | 652.75
362.38 K, 4014 kPa, x2 = 0.0218 | 629.41
362.38 K, 5003 kPa, x2 = 0.0218 | 630.95
362.38 K, 6009 kPa, x2 = 0.0218 | 632.44
362.38 K, 7003 kPa, x2 = 0.0218 | 633.95
362.38 K, 8010 kPa, x2 = 0.0218 | 635.37
362.38 K, 9008 kPa, x2 = 0.0218 | 636.85
362.38 K, 9009 kPa, x2 = 0.5085 | 638.92
362.38 K, 10008 kPa, x2 = 0.5085 | 643.09
362.38 K, 10010 kPa, x2 = 0.0218 | 638.18
362.38 K, 10998 kPa, x2 = 0.5085 | 646.98
362.38 K, 11002 kPa, x2 = 0.0218 | 639.5
362.38 K, 12004 kPa, x2 = 0.0218 | 640.84
362.38 K, 12009 kPa, x2 = 0.5085 | 650.8
362.38 K, 13001 kPa, x2 = 0.0218 | 642.13
362.38 K, 13001 kPa, x2 = 0.5085 | 654.31
362.38 K, 14002 kPa, x2 = 0.5085 | 657.71
362.38 K, 14009 kPa, x2 = 0.0218 | 643.41
362.38 K, 15004 kPa, x2 = 0.0218 | 644.62
362.38 K, 15013 kPa, x2 = 0.5085 | 660.97
362.38 K, 16005 kPa, x2 = 0.0218 | 645.88
362.38 K, 16008 kPa, x2 = 0.5085 | 664.05
362.38 K, 16999 kPa, x2 = 0.0218 | 647.06
362.38 K, 17005 kPa, x2 = 0.5085 | 667.09
362.38 K, 18001 kPa, x2 = 0.0218 | 648.25
362.38 K, 18005 kPa, x2 = 0.5085 | 670.02
362.38 K, 18994 kPa, x2 = 0.0218 | 649.38
362.38 K, 19006 kPa, x2 = 0.5085 | 672.76
362.38 K, 19999 kPa, x2 = 0.0218 | 650.56
362.38 K, 20009 kPa, x2 = 0.5085 | 675.44
362.38 K, 21006 kPa, x2 = 0.0218 | 651.69
362.38 K, 21006 kPa, x2 = 0.5085 | 678.11
362.38 K, 22002 kPa, x2 = 0.0218 | 652.83
362.38 K, 22010 kPa, x2 = 0.5085 | 680.57
362.38 K, 23002 kPa, x2 = 0.5085 | 683.07
362.38 K, 23003 kPa, x2 = 0.0218 | 653.91
362.38 K, 23995 kPa, x2 = 0.0218 | 655.01
362.38 K, 23997 kPa, x2 = 0.5085 | 685.41
362.38 K, 25005 kPa, x2 = 0.0218 | 656.12
362.38 K, 25008 kPa, x2 = 0.5085 | 687.82
